Assay results: PubChem BioAssay (NCI)
Several values for one entry are separate records, joined by “and”; a condition that tells them apart may be missing. Equal values may be shown once.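 Five concentrations, 48 hours, 96-well plates. GI50: concentration for 50% inhibition of growth. At the TGI there is no net growth.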

How the values were obtained:
Assay in all cases: growth of human tumour cells (NCI), 48 h
[1] = system: 786-0 renal
[2] = system: RXF 393 renal
[3] = system: T-47D breast
[4] = system: SN12C renal
[5] = system: SNB-75 CNS
[6] = system: SF-268 CNS
[7] = system: SK-OV-3 ovarian
[8] = system: OVCAR-4 ovarian
[9] = system: MALME-3M melanoma
[10] = system: HCT-116 colon
[11] = system: MOLT-4 leukemia
[12] = system: DU-145 prostate
[13] = system: NCI-H522 lung
[14] = system: K-562 leukemia
[15] = system: HT29 colon
[16] = system: UO-31 renal
[17] = system: SF-295 CNS
[18] = system: OVCAR-3 ovarian
[19] = system: NCI-H460 lung
[20] = system: HS 578T breast
[21] = system: SF-539 CNS
[22] = system: A498 renal
[23] = system: PC-3 prostate
[24] = system: LOX IMVI melanoma
[25] = system: UACC-62 melanoma
[26] = system: CAKI-1 renal
[27] = system: IGROV1 ovarian

Structure (SMILES): C#CC(F)(F)[C@]1(O)CC[C@H]2[C@@H]3CCC4=CC(=O)CCC4=C3[C@@H](c3ccc(C4CC4)cc3)C[C@@]21C
- TGI [1]: < 10.6 nM
- TGI [2]: 2920 nM and 7000 nM
- GI50 [3]: < 10 nM
- TGI [3]: 59000 nM and 8400 nM
- GI50 [4]: 933 nM and 2450 nM
- TGI [4]: 8690 nM and 10500 nM
- GI50 [5]: 147 nM
- TGI [5]: 437 nM
- GI50 [6]: 54.1 nM and 97.1 nM
- TGI [6]: 183 nM and 322 nM
- GI50 [7]: 162 nM and 69.5 nM
- TGI [7]: 312 nM and 215 nM
- GI50 [8]: 1010 nM
- TGI [8]: > 100000 nM
- GI50 [9]: 43.6 nM and < 15.1 nM
- TGI [9]: 94.6 nM and < 28 nM
- GI50 [10]: 3190 nM and 2900 nM
- TGI [10]: 13200 nM and 19000 nM
- GI50 [11]: 1160 nM and 1620 nM
- TGI [11]: 4000 nM and 5000 nM
- GI50 [12]: 814 nM and 2130 nM
- TGI [12]: 6550 nM and 15400 nM
- GI50 [13]: < 10 nM
- TGI [13]: 17.4 nM and < 10 nM
- GI50 [14]: 815 nM and 2210 nM
- TGI [14]: 11700 nM and > 100000 nM
- GI50 [15]: 42.8 nM and < 20 nM
- TGI [15]: 171 nM and 184 nM
- GI50 [16]: < 10 nM
- TGI [16]: < 10 nM
- GI50 [17]: 31.9 nM and < 10 nM
- TGI [17]: 82.1 nM and < 10 nM
- GI50 [18]: 15.9 nM and 24.5 nM
- TGI [18]: 32.6 nM and 169 nM
- GI50 [19]: 2380 nM and 2280 nM
- TGI [19]: 9900 nM and 9670 nM
- GI50 [20]: 205 nM and 1320 nM
- TGI [20]: 2630 nM and 7340 nM
- GI50 [21]: 20.7 nM and < 15.5 nM
- TGI [21]: 45.8 nM and 31.7 nM
- GI50 [22]: 495 nM and 593 nM
- TGI [22]: 1930 nM and 1740 nM
- GI50 [23]: 44.1 nM and 414 nM
- TGI [23]: 313 nM and 2740 nM
- GI50 [24]: < 10 nM
- TGI [24]: < 10 nM
- GI50 [25]: 762 nM and 1420 nM
- TGI [25]: 2360 nM and 4220 nM
- GI50 [26]: 103 nM and < 17.1 nM
- TGI [26]: 633 nM and 74.5 nM
- GI50 [27]: < 11.4 nM
- TGI [27]: < 15.5 nM
